Key:
Type in all cases: in vivo
soya bean, Glycine max [1] = experiment: Herbicidal activity, post-emergence foliar spray test; settings: assessed visually twelve days after spraying, 0-9 scale, 0 = growth as untreated control, 9 = death
Protocol: (§1) To evaluate their herbicidal activity, compounds according to the invention were tested using as representative range of plants: maize, Zea mays (Mz); rice, Oryza sativa (R); barnyard grass, Echinochloa crusgalli (BG); oat, Avena sativa (0); linseed, Linum usitatissisum (L); mustard, Sinapsis alba (M); sugar beet, Beta vulgaris (SB) and soya bean, Glycine max (S).
(§2) The tests fall into two categories, pre-emergence and post-emergence. […] The post-emergence tests involved two types of test, viz., soil drench and foliar spray tests. In the soil drench tests the soil in which the seedling plants of the above species were growing was drenched with a liquid formulation containing a compound of the invention, and in the foliar spray tests the seedling plants were sprayed with such a formulation.
(§3) The soil used in the tests was a prepared horticultural loam.
(§4) These acetone solutions were diluted with water and the resulting formulations applied at dosage levels corresponding to 5 kg or 1 kg of active material per hectare in a volume equivalent to 600 litres per hectare in the soil spray and foliar spray test, and at a dosage of level equivalent to 10 kilograms of active material per hectare in a volume equivalent to approximately 3,000 litres per hectare in the soil drench tests.
(§5) In the pre-emexgence tests untreated sown soil and in the post-emergence tests untreated soil bearing seedling plants were used as controls.
(§6) The herbicidal effects of the test compounds were assessed visually twelve days after spraying the foliage and the soil, and thirteen days after drenching the soil and were recorded on a 0-9 scale. A rating 0 indicates growth as untreated control, a rating 9 indicates death. An increase of 1 unit on the linear scale approximates to a 10% increase in the level of effect.

[2] = test system: barnyard grass, Echinochloa crusgalli; experiment: as above; settings: assessed visually twelve days after spraying, 0-9 scale, 0 = growth as untreated control, 9 = death
Protocol: as §1, §2, §3, §4, §5, §6

rice, Oryza sativa [3] = experiment: as above; settings: assessed visually twelve days after spraying, 0-9 scale, 0 = growth as untreated control, 9 = death
Protocol: as §1, §2, §3, §4, §5, §6

mustard, Sinapsis alba [4] = experiment: as above; settings: assessed visually twelve days after spraying, 0-9 scale, 0 = growth as untreated control, 9 = death
Protocol: as §1, §2, §3, §4, §5, §6

oat, Avena sativa [5] = experiment: as above; settings: assessed visually twelve days after spraying, 0-9 scale, 0 = growth as untreated control, 9 = death
Protocol: as §1, §2, §3, §4, §5, §6

maize, Zea mays [6] = experiment: as above; settings: assessed visually twelve days after spraying, 0-9 scale, 0 = growth as untreated control, 9 = death
Protocol: as §1, §2, §3, §4, §5, §6

[7] = test system: sugar beet, Beta vulgaris; experiment: as above; settings: assessed visually twelve days after spraying, 0-9 scale, 0 = growth as untreated control, 9 = death
Protocol: as §1, §2, §3, §4, §5, §6

[8] = test system: linseed, Linum usitatissisum; experiment: as above; settings: assessed visually twelve days after spraying, 0-9 scale, 0 = growth as untreated control, 9 = death
Protocol: as §1, §2, §3, §4, §5, §6

soya bean, Glycine max [9] = experiment: Herbicidal activity, pre-emergence test (soil spray); settings: assessed visually twelve days after spraying, 0-9 scale, 0 = growth as untreated control, 9 = death
Protocol: as §1, §2, §3, §4, §5, §6

[10] = test system: barnyard grass, Echinochloa crusgalli; experiment: as above; settings: assessed visually twelve days after spraying, 0-9 scale, 0 = growth as untreated control, 9 = death
Protocol: as §1, §2, §3, §4, §5, §6

rice, Oryza sativa [11] = experiment: as above; settings: assessed visually twelve days after spraying, 0-9 scale, 0 = growth as untreated control, 9 = death
Protocol: as §1, §2, §3, §4, §5, §6

mustard, Sinapsis alba [12] = experiment: as above; settings: assessed visually twelve days after spraying, 0-9 scale, 0 = growth as untreated control, 9 = death
Protocol: as §1, §2, §3, §4, §5, §6

oat, Avena sativa [13] = experiment: as above; settings: assessed visually twelve days after spraying, 0-9 scale, 0 = growth as untreated control, 9 = death
Protocol: as §1, §2, §3, §4, §5, §6

maize, Zea mays [14] = experiment: as above; settings: assessed visually twelve days after spraying, 0-9 scale, 0 = growth as untreated control, 9 = death
Protocol: as §1, §2, §3, §4, §5, §6

[15] = test system: sugar beet, Beta vulgaris; experiment: as above; settings: assessed visually twelve days after spraying, 0-9 scale, 0 = growth as untreated control, 9 = death
Protocol: as §1, §2, §3, §4, §5, §6

[16] = test system: linseed, Linum usitatissisum; experiment: as above; settings: assessed visually twelve days after spraying, 0-9 scale, 0 = growth as untreated control, 9 = death
Protocol: as §1, §2, §3, §4, §5, §6

soya bean, Glycine max [17] = experiment: Herbicidal activity, post-emergence soil drench test; settings: 10 kg/ha soil drench; assessed visually thirteen days after drenching; 0-9 scale, 0 = growth as untreated control, 9 = death
Protocol: as §1, §2, §3, §4, §5, §6

[18] = test system: barnyard grass, Echinochloa crusgalli; experiment: as above; settings: 10 kg/ha soil drench; assessed visually thirteen days after drenching; 0-9 scale, 0 = growth as untreated control, 9 = death
Protocol: as §1, §2, §3, §4, §5, §6

rice, Oryza sativa [19] = experiment: as above; settings: 10 kg/ha soil drench; assessed visually thirteen days after drenching; 0-9 scale, 0 = growth as untreated control, 9 = death
Protocol: as §1, §2, §3, §4, §5, §6

mustard, Sinapsis alba [20] = experiment: as above; settings: 10 kg/ha soil drench; assessed visually thirteen days after drenching; 0-9 scale, 0 = growth as untreated control, 9 = death
Protocol: as §1, §2, §3, §4, §5, §6

oat, Avena sativa [21] = experiment: as above; settings: 10 kg/ha soil drench; assessed visually thirteen days after drenching; 0-9 scale, 0 = growth as untreated control, 9 = death
Protocol: as §1, §2, §3, §4, §5, §6

maize, Zea mays [22] = experiment: as above; settings: 10 kg/ha soil drench; assessed visually thirteen days after drenching; 0-9 scale, 0 = growth as untreated control, 9 = death
Protocol: as §1, §2, §3, §4, §5, §6

[23] = test system: sugar beet, Beta vulgaris; experiment: as above; settings: 10 kg/ha soil drench; assessed visually thirteen days after drenching; 0-9 scale, 0 = growth as untreated control, 9 = death
Protocol: as §1, §2, §3, §4, §5, §6

[24] = test system: linseed, Linum usitatissisum; experiment: as above; settings: 10 kg/ha soil drench; assessed visually thirteen days after drenching; 0-9 scale, 0 = growth as untreated control, 9 = death
Protocol: as §1, §2, §3, §4, §5, §6

Row | Compound | Foliar spray S (herbicidal effect rating) (soya bean, Glycine max [1]; Dosage 1 kg/ha) | Foliar spray S (herbicidal effect rating) (soya bean, Glycine max [1]; Dosage 5 kg/ha) | Foliar spray BG (herbicidal effect rating) ([2]; Dosage 1 kg/ha) | Foliar spray BG (herbicidal effect rating) ([2]; Dosage 5 kg/ha) | Foliar spray R (herbicidal effect rating) (rice, Oryza sativa [3]; Dosage 1 kg/ha) | Foliar spray R (herbicidal effect rating) (rice, Oryza sativa [3]; Dosage 5 kg/ha) | Foliar spray M (herbicidal effect rating) (mustard, Sinapsis alba [4]; Dosage 1 kg/ha) | Foliar spray M (herbicidal effect rating) (mustard, Sinapsis alba [4]; Dosage 5 kg/ha) | Foliar spray O (herbicidal effect rating) (oat, Avena sativa [5]; Dosage 1 kg/ha) | Foliar spray O (herbicidal effect rating) (oat, Avena sativa [5]; Dosage 5 kg/ha) | Foliar spray Mz (herbicidal effect rating) (maize, Zea mays [6]; Dosage 1 kg/ha) | Foliar spray Mz (herbicidal effect rating) (maize, Zea mays [6]; Dosage 5 kg/ha) | Foliar spray SB (herbicidal effect rating) ([7]; Dosage 1 kg/ha) | Foliar spray SB (herbicidal effect rating) ([7]; Dosage 5 kg/ha) | Foliar spray L (herbicidal effect rating) ([8]; Dosage 1 kg/ha) | Foliar spray L (herbicidal effect rating) ([8]; Dosage 5 kg/ha) | Pre-emergence S (herbicidal effect rating) (soya bean, Glycine max [9]; Dosage 1 kg/ha) | Pre-emergence S (herbicidal effect rating) (soya bean, Glycine max [9]; Dosage 5 kg/ha) | Pre-emergence BG (herbicidal effect rating) ([10]; Dosage 1 kg/ha) | Pre-emergence BG (herbicidal effect rating) ([10]; Dosage 5 kg/ha) | also measured
1 | COC(=O)c1cc2cc3c(cc2nc1C1=NC(=O)C(C)(C(C)C)N1)OCO3 (stereo not shown) [Example 1, Methyl-2-(5-i.saprapyl-5-methyl-4-oxo-2-imidazolin-2-yl)-[1,3]-dioxolo[4,5-g] quinoline-3-carboxylate] | 0 | 2 | 4 | 7 | 4 | 6 | 5 | 7 | 5 | 6 | 5 | 7 | 6 | 8 | 6 | 7 | 0 | 0 | 5 | 8 | Pre-emergence R (herbicidal effect rating) (rice, Oryza sativa [11]; Dosage 1 kg/ha): 4; Pre-emergence R (herbicidal effect rating) (rice, Oryza sativa [11]; Dosage 5 kg/ha): 8; Pre-emergence M (herbicidal effect rating) (mustard, Sinapsis alba [12]; Dosage 1 kg/ha): 4; Pre-emergence M (herbicidal effect rating) (mustard, Sinapsis alba [12]; Dosage 5 kg/ha): 7; Pre-emergence O (herbicidal effect rating) (oat, Avena sativa [13]; Dosage 1 kg/ha): 5; Pre-emergence O (herbicidal effect rating) (oat, Avena sativa [13]; Dosage 5 kg/ha): 7; Pre-emergence Mz (herbicidal effect rating) (maize, Zea mays [14]; Dosage 1 kg/ha): 5; Pre-emergence Mz (herbicidal effect rating) (maize, Zea mays [14]; Dosage 5 kg/ha): 7; Pre-emergence SB (herbicidal effect rating) ([15]; Dosage 1 kg/ha): 6; Pre-emergence SB (herbicidal effect rating) ([15]; Dosage 5 kg/ha): 6; Pre-emergence L (herbicidal effect rating) ([16]; Dosage 1 kg/ha): 6; Pre-emergence L (herbicidal effect rating) ([16]; Dosage 5 kg/ha): 7; Soil drench 10/kg/ha S (herbicidal effect rating) (soya bean, Glycine max [17]): 4; Soil drench 10/kg/ha BG (herbicidal effect rating) [18]: 7; Soil drench 10/kg/ha R (herbicidal effect rating) (rice, Oryza sativa [19]): 7; Soil drench 10/kg/ha M (herbicidal effect rating) (mustard, Sinapsis alba [20]): 8; Soil drench 10/kg/ha O (herbicidal effect rating) (oat, Avena sativa [21]): 6; Soil drench 10/kg/ha Mz (herbicidal effect rating) (maize, Zea mays [22]): 6; Soil drench 10/kg/ha SB (herbicidal effect rating) [23]: 7; Soil drench 10/kg/ha L (herbicidal effect rating) [24]: 6
2 | CC(C)C1(C)NC(c2nc3cc4c(cc3cc2C(=O)O)OCO4)=NC1=O (stereo not shown) [Example 2, 2-(5-methyl-5-isopropyl-4-oxo-2-imidazolin-2-yl)-[1,3]-dioxolo[4,5-g] quinoline-3-carboxylic acid] | 2 | 4 | 7 | 7 | 6 | 6 | 7 | 7 | 6 | 7 | 6 | 7 | 7 | 7 | 6 | 6 | 8 | 8 | 8 | 8 | Pre-emergence R (herbicidal effect rating) (rice, Oryza sativa [11]; Dosage 1 kg/ha): 9; Pre-emergence R (herbicidal effect rating) (rice, Oryza sativa [11]; Dosage 5 kg/ha): 9; Pre-emergence M (herbicidal effect rating) (mustard, Sinapsis alba [12]; Dosage 1 kg/ha): 7; Pre-emergence M (herbicidal effect rating) (mustard, Sinapsis alba [12]; Dosage 5 kg/ha): 7; Pre-emergence O (herbicidal effect rating) (oat, Avena sativa [13]; Dosage 1 kg/ha): 7; Pre-emergence O (herbicidal effect rating) (oat, Avena sativa [13]; Dosage 5 kg/ha): 7; Pre-emergence Mz (herbicidal effect rating) (maize, Zea mays [14]; Dosage 1 kg/ha): 8; Pre-emergence Mz (herbicidal effect rating) (maize, Zea mays [14]; Dosage 5 kg/ha): 8; Pre-emergence SB (herbicidal effect rating) ([15]; Dosage 1 kg/ha): 8; Pre-emergence SB (herbicidal effect rating) ([15]; Dosage 5 kg/ha): 8; Pre-emergence L (herbicidal effect rating) ([16]; Dosage 1 kg/ha): 8; Pre-emergence L (herbicidal effect rating) ([16]; Dosage 5 kg/ha): 9; Soil drench 10/kg/ha S (herbicidal effect rating) (soya bean, Glycine max [17]): 6; Soil drench 10/kg/ha BG (herbicidal effect rating) [18]: 9; Soil drench 10/kg/ha R (herbicidal effect rating) (rice, Oryza sativa [19]): 7; Soil drench 10/kg/ha M (herbicidal effect rating) (mustard, Sinapsis alba [20]): 9; Soil drench 10/kg/ha O (herbicidal effect rating) (oat, Avena sativa [21]): 7; Soil drench 10/kg/ha Mz (herbicidal effect rating) (maize, Zea mays [22]): 7; Soil drench 10/kg/ha SB (herbicidal effect rating) [23]: 8; Soil drench 10/kg/ha L (herbicidal effect rating) [24]: 7
3 | CC(C)C1(C)NC(c2cc3c(cc2C(=O)O)OCO3)=NC1=O (stereo not shown) [Example 7, 2-(5-isopropyl-5-methyl-4-oxo-2-imidazolin-2-yl)-[1,3]-dioxolo [4,5-d]benzoic acid] | 0 | 4 | 5 | 6 | 2 | 3 | 7 | 7 | 1 | 2 | 2 | 3 | 6 | 7 | 3 | 4 | 0 | 1 | 3 | 7 | Pre-emergence R (herbicidal effect rating) (rice, Oryza sativa [11]; Dosage 1 kg/ha): 8; Pre-emergence R (herbicidal effect rating) (rice, Oryza sativa [11]; Dosage 5 kg/ha): 9; Pre-emergence M (herbicidal effect rating) (mustard, Sinapsis alba [12]; Dosage 1 kg/ha): 4; Pre-emergence M (herbicidal effect rating) (mustard, Sinapsis alba [12]; Dosage 5 kg/ha): 7; Pre-emergence O (herbicidal effect rating) (oat, Avena sativa [13]; Dosage 1 kg/ha): 0; Pre-emergence O (herbicidal effect rating) (oat, Avena sativa [13]; Dosage 5 kg/ha): 5; Pre-emergence Mz (herbicidal effect rating) (maize, Zea mays [14]; Dosage 1 kg/ha): 1; Pre-emergence Mz (herbicidal effect rating) (maize, Zea mays [14]; Dosage 5 kg/ha): 6; Pre-emergence SB (herbicidal effect rating) ([15]; Dosage 1 kg/ha): 7; Pre-emergence SB (herbicidal effect rating) ([15]; Dosage 5 kg/ha): 8; Pre-emergence L (herbicidal effect rating) ([16]; Dosage 1 kg/ha): 3; Pre-emergence L (herbicidal effect rating) ([16]; Dosage 5 kg/ha): 7

Source: EP0198522A1, “Heterocyclic herbicides” (SHELL INTERNATIONALE RESEARCH MAATSCHAPPIJ B.V., priority 1985, dated 1986)
